Measured values: ChEMBL document CHEMBL1136145, “Antitumor activity of unsaturated fatty acid esters of 4'-demethyldeoxypodophyllotoxin” (Bioorg Med Chem Lett, 2003)
≈ marks a conversion by molar mass, not a printed value.

Legend:
SK-MEL-2 = assay: Cytotoxicity in SK-MEL-2 (human melanoma) cell line.; format: functional; conditions: read-out: ED50 (the source's name)
A549 = assay: Cytotoxicity in A549 (human carcinoma) cell line.; format: functional; conditions: read-out: ED50 (the source's name)
[1] = Inhibition of DNA topoisomerase II in S180 (murine sarcoma) cells.; format: functional, cell-based, Mus musculus; conditions: ccrf s-180
CCRF S-180 = assay: Cytotoxicity in S-180 (murine sarcoma) cell was determined.; format: functional, cell-based; conditions: Mus musculus
Tubulin = assay: Inhibition of tubulin polymerization in S180 (murine sarcoma) cells.; format: functional, cell-based; conditions: ccrf s-180

SMILES | EC50 (SK-MEL-2) [µg/mL] | EC50 (A549) [µg/mL] | IC50 [1] [µM] | IC50 (CCRF S-180) [nM] | IC50 (Tubulin) [nM]
CCCC/C=C\C/C=C\CCCCCCCCCC(=O)Oc1c(OC)cc([C@@H]2c3cc4c(cc3C[C@H]3COC(=O)[C@@H]32)OCO4)cc1OC | 0.347 (≈ 0.525 µM) | 0.87 (≈ 1.32 µM) |  |  | 
CCCC/C=C\C/C=C\C/C=C\C/C=C\CCCC(=O)Oc1c(OC)cc([C@@H]2c3cc4c(cc3C[C@H]3COC(=O)[C@@H]32)OCO4)cc1OC | 0.184 (≈ 0.28 µM) | 0.91 (≈ 1.39 µM) |  |  | 
CCCCCC/C=C\CCCCCCCCCC(=O)Oc1c(OC)cc([C@@H]2c3cc4c(cc3C[C@H]3COC(=O)[C@@H]32)OCO4)cc1OC | 0.057 (≈ 0.0878 µM) | 0.335 (≈ 0.516 µM) |  |  | 
CCCCCCCC/C=C\CCCCCCCCCC(=O)Oc1c(OC)cc([C@@H]2c3cc4c(cc3C[C@H]3COC(=O)[C@@H]32)OCO4)cc1OC | > 5 | > 5 |  |  | 
CCCCCCCCCCCCCCCC(=O)Oc1c(OC)cc([C@@H]2c3cc4c(cc3C[C@H]3COC(=O)[C@@H]32)OCO4)cc1OC | 0.29 (≈ 0.466 µM) | 0.268 (≈ 0.43 µM) |  |  | 
CCCCCCC/C=C/CCCCCCCCCC(=O)Oc1c(OC)cc([C@@H]2c3cc4c(cc3C[C@H]3COC(=O)[C@@H]32)OCO4)cc1OC | 1.13 (≈ 1.7 µM) | 1.66 (≈ 2.5 µM) |  |  | 
CCCCCCCCCCCCCCCCCC(=O)Oc1c(OC)cc([C@@H]2c3cc4c(cc3C[C@H]3COC(=O)[C@@H]32)OCO4)cc1OC | > 5 | 2.67 (≈ 4.1 µM) |  |  | 
CCCCCCCC/C=C\CCCCCCCCCCCC(=O)Oc1c(OC)cc([C@@H]2c3cc4c(cc3C[C@H]3COC(=O)[C@@H]32)OCO4)cc1OC | 0.561 (≈ 0.796 µM) | 2.71 (≈ 3.84 µM) |  |  | 
CC/C=C\C/C=C\C/C=C\C/C=C\C/C=C\C/C=C\CCC(=O)Oc1c(OC)cc([C@@H]2c3cc4c(cc3C[C@H]3COC(=O)[C@@H]32)OCO4)cc1OC | 0.035 (≈ 0.0504 µM) | 0.119 (≈ 0.171 µM) |  |  | 
CCCCCC/C=C\CCCCCCCC(=O)Oc1c(OC)cc([C@@H]2c3cc4c(cc3C[C@H]3COC(=O)[C@@H]32)OCO4)cc1OC | 0.065 (≈ 0.105 µM) | 0.733 (≈ 1.18 µM) |  |  | 
CCCCCCCCCCCCCCCCCCCC(=O)Oc1c(OC)cc([C@@H]2c3cc4c(cc3C[C@H]3COC(=O)[C@@H]32)OCO4)cc1OC | > 5 | > 5 |  |  | 
CCCCC/C=C\C/C=C\C/C=C\CCCCC(=O)Oc1c(OC)cc([C@@H]2c3cc4c(cc3C[C@H]3COC(=O)[C@@H]32)OCO4)cc1OC | 0.041 (≈ 0.0636 µM) | 0.085 (≈ 0.132 µM) |  |  | 
CCCCC/C=C/C/C=C/CCCCCCCC(=O)Oc1c(OC)cc([C@@H]2c3cc4c(cc3C[C@H]3COC(=O)[C@@H]32)OCO4)cc1OC | 0.11 (≈ 0.17 µM) | 0.259 (≈ 0.4 µM) |  |  | 
CCCCCCCC/C=C\CCCCCCCC(=O)Oc1c(OC)cc([C@@H]2c3cc4c(cc3C[C@H]3COC(=O)[C@@H]32)OCO4)cc1OC | 0.159 (≈ 0.245 µM) | 0.179 (≈ 0.276 µM) |  |  | 
CCCCCCCCCCCCCCCCCCCCCC(=O)Oc1c(OC)cc([C@@H]2c3cc4c(cc3C[C@H]3COC(=O)[C@@H]32)OCO4)cc1OC | > 5 | > 5 |  |  | 
CCCCC/C=C\C/C=C\CCCCCCCC(=O)Oc1c(OC)cc([C@@H]2c3cc4c(cc3C[C@H]3COC(=O)[C@@H]32)OCO4)cc1OC | 0.03 (≈ 0.0464 µM) | 0.09 (≈ 0.139 µM) |  |  | 
CC/C=C\C/C=C\C/C=C\CCCCCCCC(=O)Oc1c(OC)cc([C@@H]2c3cc4c(cc3C[C@H]3COC(=O)[C@@H]32)OCO4)cc1OC | 0.048 (≈ 0.0744 µM) | 0.084 (≈ 0.13 µM) |  |  | 
CCCCCC/C=C/CCCCCCCCCC(=O)Oc1c(OC)cc([C@@H]2c3cc4c(cc3C[C@H]3COC(=O)[C@@H]32)OCO4)cc1OC | 0.253 (≈ 0.39 µM) | 1.01 (≈ 1.56 µM) |  |  | 
CCCCCCCC/C=C/CCCCCCCC(=O)Oc1c(OC)cc([C@@H]2c3cc4c(cc3C[C@H]3COC(=O)[C@@H]32)OCO4)cc1OC | 0.55 (≈ 0.848 µM) | 0.367 (≈ 0.566 µM) |  |  | 
COc1cc([C@@H]2c3cc4c(cc3C[C@H]3COC(=O)[C@@H]32)OCO4)cc(OC)c1O [4'-DEMETHYLDEOXYPODOPHYLLOTOXIN] | 0.015 (≈ 0.039 µM) | 0.023 (≈ 0.0598 µM) | 24.5 | 30 | 2000
COc1cc([C@@H]2c3cc4c(cc3C[C@H]3COC(=O)[C@@H]32)OCO4)cc(OC)c1OC [DESOXYPODOPHYLLOTOXIN] | 0.009 (≈ 0.0226 µM) | 0.012 (≈ 0.0301 µM) |  |  | 
